These results are taken from paper PMC8099913, “FoldAffinity: binding affinities from nDSF experiments” (Scientific Reports, 2021).

In experiment [1] the target is T1, Pcs60 (Saccharomyces cerevisiae, UniProt P38137). The format is binding, S. cerevisiae.
The target in a further experiment is Pcs60 K523A mutant (Saccharomyces cerevisiae, UniProt P38137, K523A). In words: biochemical. The format is binding, S. cerevisiae. The procedure: (§1) The following protocol was used for all nDSF experiments with Pcs60 and the nucleotide ligand γS-ATP. 14 dilutions of the nucleotide ligand (γS-ATP) starting at 5 mM at a constant Pcs60 concentration of 9.9 μM were prepared in buffer (50 mM HEPES pH 7.5, 150 mM NaCl, 0.5 mM TCEP). […] In addition to the ligand dilutions, a pure Pcs60 sample in the same buffer was used. If not stated otherwise, the measurements were run as triplicates (in total 45 temperature curves). The LED laser power for the experiments was between 70 and 80%.

Experiment [2] addresses T1, Pcs60. As to the kind of experiment: Differential scanning calorimetry (DSC) of Pcs60 with γS-ATP. To be noted: Pcs60 180 µM, γS-ATP 192 µM. Format: binding, S. cerevisiae. The procedure: 2Differential scanning calorimetry of Pcs60
Figure S24. Differential scanning calorimetry (DSC) of Pcs60 (180 µM) in absence and presence of its ligand γS-ATP (192 µM). Here the raw data is shown before baseline correction. […] The […]
temperature of the ﬁrst transition is shifted by ligand binding from 41.5 to 43.4◦C. […]
affected upon ligand binding. Since the two transitions overlap, it was not possible to extract a reliable value of the heat capacity change upon unfolding ∆Cp.
(also on this page, place not known: 2 30 40 50 60 70 Temperature / C 11 10 9 8 7 6 DP / mJ/min PCS60 PCS60 + S-ATP Differential)
(1 picture or pasted object on this page, not shown here)
(Differential scanning calorimetry records heat flow against a reference as temperature is scanned.)

The target of experiment [3] is T1, Pcs60. Format: binding, S. cerevisiae. To be noted: read-out: Kd (MST); Tref 21 °C; 1:1 model. The procedure: MST curves for Pcs60/ γ S-ATP were acquired with a Nanotemper Monolith NT.LabelFree (Nanotemper) using the MO.Control v1.6 acquisition software and Monolith NT.LabelFree capillaries. The same protein concentration and buffer conditions as for the nDSF experiments were used (9.9 μM). 16 different ligand concentrations (serial dilution with a factor of 2) in the range between 5 mM and 0.15 μM were used for each measurement. For the MST experiment the IR laser power was set to 20% and the UV laser power to 1%. In total, two independent measurements were done plus an additional repeat. The data was exported as xlsx and analyzed and plotted with a self-written Python script. The regions for Fnorm determination were − 1–0 s for “cold” and 19–20 s for “hot”. For each curve Fnorm was calculated as the ratio between the mean values in the “hot” and “cold” region. In the final step, Fnorm was fitted to a 1:1 binding model. The self-written Python scripts for spectral analysis including MST analysis are available online: https://github.com/steniegit/libspec

In another experiment the target is wild-type Pcs60 (Saccharomyces cerevisiae, UniProt P38137). As to the kind of experiment: biochemical. Format: binding, S. cerevisiae. The protocol: as §1
Figure S29. (A) nDSF binding study for wild-type Pcs60 WT/γS-ATP. The region in the colored box was used for isothermal
analysis. […] (C) Isothermal analysis for […]

For another experiment, the target named is SS1 (Danio rerio, UniProt A0A0R4IMY7). The format is binding, zebrafish.
Another experiment has as its target EG1 (Homo sapiens, UniProt Q9BW91). Format: binding. The conditions noted are these: ADPR 2 mM to 24 nM.

“And” between values parts separate entries of the source, which are not always exact repeats. Identical values can stand only once. Like-named read-outs stand apart in the source and are kept apart here.

T1 sequence (P38137 whole entry): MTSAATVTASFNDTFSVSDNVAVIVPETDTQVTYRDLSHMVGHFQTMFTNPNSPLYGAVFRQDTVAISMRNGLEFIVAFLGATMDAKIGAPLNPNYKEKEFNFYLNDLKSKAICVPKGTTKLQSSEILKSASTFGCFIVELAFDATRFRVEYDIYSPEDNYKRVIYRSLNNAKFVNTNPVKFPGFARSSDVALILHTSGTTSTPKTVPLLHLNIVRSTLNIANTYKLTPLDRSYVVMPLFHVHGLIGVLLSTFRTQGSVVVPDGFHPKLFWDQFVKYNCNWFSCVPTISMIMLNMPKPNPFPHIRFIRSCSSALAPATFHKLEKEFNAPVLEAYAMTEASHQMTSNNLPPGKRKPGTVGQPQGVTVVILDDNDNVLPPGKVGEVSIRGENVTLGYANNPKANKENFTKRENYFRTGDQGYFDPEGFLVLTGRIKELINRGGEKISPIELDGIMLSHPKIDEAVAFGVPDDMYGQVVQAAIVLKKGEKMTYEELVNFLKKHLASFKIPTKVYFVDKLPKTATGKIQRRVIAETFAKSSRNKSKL
Chain of wild-type Pcs60 (P38137 whole entry): as above
Chain of Pcs60 K523A mutant (P38137 whole entry K523A): as the sequence (P38137 whole entry) above, with K523A counted along it
Chain of EG1 (Q9BW91 59-350): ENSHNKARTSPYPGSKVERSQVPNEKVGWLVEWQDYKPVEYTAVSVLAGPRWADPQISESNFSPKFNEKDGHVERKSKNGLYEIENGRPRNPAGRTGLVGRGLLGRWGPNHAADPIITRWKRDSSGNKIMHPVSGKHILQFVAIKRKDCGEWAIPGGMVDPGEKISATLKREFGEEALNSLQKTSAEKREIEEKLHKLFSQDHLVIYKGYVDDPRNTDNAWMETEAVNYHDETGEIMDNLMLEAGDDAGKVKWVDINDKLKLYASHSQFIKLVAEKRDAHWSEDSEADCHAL
Chain of SS1 (A0A0R4IMY7 32-415): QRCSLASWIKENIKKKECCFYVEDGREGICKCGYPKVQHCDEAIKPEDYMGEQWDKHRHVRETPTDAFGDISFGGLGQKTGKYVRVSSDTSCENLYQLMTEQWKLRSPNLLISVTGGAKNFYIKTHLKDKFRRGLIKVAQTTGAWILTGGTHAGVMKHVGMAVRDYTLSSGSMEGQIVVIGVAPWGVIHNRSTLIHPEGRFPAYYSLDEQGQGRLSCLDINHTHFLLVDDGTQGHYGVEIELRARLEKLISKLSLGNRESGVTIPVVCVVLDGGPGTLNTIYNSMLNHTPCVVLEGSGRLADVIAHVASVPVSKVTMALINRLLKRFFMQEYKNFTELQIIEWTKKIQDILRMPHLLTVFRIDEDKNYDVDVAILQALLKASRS

In the case of `Nc1ncnc2c1ncn2[C@@H]1O[C@H](CO[P@](=O)(O)O[P@](=O)(O)O[P@@](=O)(O)S)[C@@H](O)[C@H]1O` [γS-ATP], the Kd turned out to be 14.9 µM on Pcs60 [1] (T=36 °C, fitted ∆Cp = 6.7 kcal/molK, read-out: Kd (isothermal analysis, fitted ∆Cp)); 15.4 µM on Pcs60 [1] (T=38 °C, fitted ∆Cp = 6.7 kcal/molK, read-out: Kd (isothermal analysis, fitted ∆Cp)); 17.1 µM at Pcs60 [1] (T=40 °C, fitted ∆Cp = 6.7 kcal/molK, read-out: Kd (isothermal analysis, fitted ∆Cp)); 21.9 µM on Pcs60 [1] (T=42 °C, fitted ∆Cp = 6.7 kcal/molK, read-out: Kd (isothermal analysis, fitted ∆Cp)); 32.4 µM on Pcs60 [1] (T=44 °C, fitted ∆Cp = 6.7 kcal/molK, read-out: Kd (isothermal analysis, fitted ∆Cp)); 41.1 µM at Pcs60 [1] (T=46 °C, fitted ∆Cp = 6.7 kcal/molK, read-out: Kd (isothermal analysis, fitted ∆Cp)). Further, the Kd on Pcs60 [1] (T=48 °C, fitted ∆Cp = 6.7 kcal/molK, read-out: Kd (isothermal analysis, fitted ∆Cp)) was found to be 27.8 µM; at Pcs60 [1] (Tiso 40 °C, ∆Cp = 0, read-out: Kd (isothermal analysis of nDSF)) it was 18.4 µM; at Pcs60 [1] (heating rate 1 °C/min, ∆Cp default 0 kcal/mol, Tsel 40 °C, read-out: Kd,Tsel) it was 18 µM; on Pcs60 [1] (heating rate 1 °C/min, ∆Cp fitted 6.7 kcal/mol, Tsel 38 °C, read-out: Kd,Tsel), 17 µM; at Pcs60 [1] (heating rate 3 °C/min, ∆Cp default 0 kcal/mol, Tsel 39 °C, read-out: Kd,Tsel), 16 µM; on Pcs60 [1] (heating rate 3 °C/min, ∆Cp fitted 6.7 kcal/mol, Tsel 39 °C, read-out: Kd,Tsel), 19 µM. Besides, the Kd at Pcs60 [1] (heating rate 5 °C/min, ∆Cp default 0 kcal/mol, Tsel 39 °C, read-out: Kd,Tsel) is 23 µM; at Pcs60 [1] (heating rate 5 °C/min, ∆Cp fitted 6.7 kcal/mol, Tsel 40 °C, read-out: Kd,Tsel), 24 µM; at Pcs60 [1] (read-out: Kd,app,model1 (melting temperature analysis), single-site model, Eq. (1), first transition) it was 144 µM; at Pcs60 [1] (read-out: Kd,app,model2 (melting temperature analysis), model 2, Eq. (4), first transition) it was 10.2 µM; at Pcs60 K523A mutant (Kd (isothermal analysis)), 252 µM and 297 µM and 246 µM and 236 µM and 227 µM and 219 µM and 212 µM and 221 µM; on Pcs60 K523A mutant (read-out: Kd (isothermal analysis of nDSF)), 213 µM. For the same compound, the Kd was 741 µM on Pcs60 K523A mutant (read-out: Kd, melting temperature analysis model 1); 117 µM on Pcs60 K523A mutant (read-out: Kd, melting temperature analysis model 2); 16 µM on Pcs60 [3]; 19.7 µM at wild-type Pcs60 (T=36 °C, ∆Cp = 0, read-out: Kd (isothermal analysis)); 20.2 µM at wild-type Pcs60 (T=38 °C, ∆Cp = 0, read-out: Kd (isothermal analysis)); 21 µM on wild-type Pcs60 (T=40 °C, ∆Cp = 0, read-out: Kd (isothermal analysis)). The Kd at wild-type Pcs60 (T=42 °C, ∆Cp = 0, read-out: Kd (isothermal analysis)) was 22.5 µM; at wild-type Pcs60 (T=44 °C, ∆Cp = 0, read-out: Kd (isothermal analysis)) it was 24.9 µM; on wild-type Pcs60 (T=46 °C, ∆Cp = 0, read-out: Kd (isothermal analysis)) it was 28.7 µM; on wild-type Pcs60 (T=48 °C, ∆Cp = 0, read-out: Kd (isothermal analysis)), 39.5 µM; on wild-type Pcs60 (T=50 °C, ∆Cp = 0, read-out: Kd (isothermal analysis)) it was 78 µM; on wild-type Pcs60 (T=52 °C, ∆Cp = 0, read-out: Kd (isothermal analysis)) it was 146 µM. Moreover, the Kd was around 20 µM on wild-type Pcs60 (isothermal analysis, read-out: Kd values (summary in legend)); 195 µM at wild-type Pcs60 (read-out: Kd,app Model 1 (melting temperature analysis)); 15.6 µM at wild-type Pcs60 (read-out: Kd,app Model 2 (melting temperature analysis)). Moreover, on Pcs60 [1] (first transition), the “Tm (melting temperature range of binding study)” value was 37–48 °C. In addition, the “second transition at […] (DSC) upon ligand binding” value on Pcs60 [2] is reported as “not”. On Pcs60 [2] (41.5 °C in absence of ligand), the “temperature of the first transition (DSC) upon ligand binding” value was 43.4 °C.

adenosine diphosphate ribose [ADPR]: the “Tm (melting temperature range of binding study)” value was 50–60 °C on SS1 and 51–56 °C on EG1.
